How the values were obtained:
Min6 cells = assay: HA synthesis inhibition in Min6 insulinoma cells; type: cell-based; settings: insulinoma cell line
Protocol: (§1) Samples were thawed and assayed for HA levels using a modified HA ELISA as previously described (Nagy N., et al., J. Clin. Invest. 2015; 125(10):3928-3940). Each sample was analyzed in triplicate with a mean value obtained per sample. For cell normalization, LI-COR CellTag™ 700 Stain was used according to the manufactures protocol.

B16F10 cells [1] = assay: 4-MU fluorescence of treated B16F10 cells by flow cytometry, pre- and post-permeabilization; type: in vitro ADME, murine
Protocol: Fluorescent values of 4-MUG were normalized to the 4-MU fluorescence. Referring to FIG. 2 B, 4-MU or 4-MUG was added to PBS with 10% FCS and the increase of fluorescence signal using a fluorescence plate reader was monitored at intervals up to 72 hours. […] B16F10 cells were cultured in DMEM and were treated with different concentrations of 4-MU and 4-MUG (30, 100, 300 μM) for 24 and 48 hours. Cultured cells were lysed and analyzed for HA concentration determination using an HA ELISA. HA staining in B16F10 cells placed in 96 well plates were imaged using fluorescence microscopy. To measure 4-MU florescence intensity in B16F10 cells treated with 4-MU and 4-MUG, B16F10 cells were trypsinized and 4-MU fluorescence associated with the cells was analyzed by flow cytometry in the Pacific Blue channel using a BD™ LSRII flow cytometer. For permeabilization, after trypsinization, cells were incubated in methanol at −20° C. for 20 min and washed once before flow cytometric analysis.

B16F10 cells [2] = assay: HA production and HA staining by B16F10 melanoma cells (HA ELISA, HABP staining); type: cell-based, murine; settings: for HA production (HA synthesis inhibition) by B16F10 cells: 48 hours of drug exposure, 30, 100, 300 μM, HA ELISA; for HA staining of B16F10 cells with HA binding protein (HABP): fluorescent staining
Protocol: To test this, murine melanoma cells (B16F10), a cell line known to produce abundant HA, were used. […] FIGS. 4D and 4E show HA production by B16F10 cells cultured for 48 hours in 4-MU (FIG. 1D) or 4-MUG (FIG. 1E). […] Data represent mean±SEM; *, p<0.05 by unpaired t test. Similar findings were seen as well in primary lymphocytes.
B16F10 cells were cultured in DMEM and were treated with different concentrations of 4-MU and 4-MUG (30, 100, 300 μM) for 24 and 48 hours. Cultured cells were lysed and analyzed for HA concentration determination using an HA ELISA. HA staining in B16F10 cells placed in 96 well plates were imaged using fluorescence microscopy. To measure 4-MU florescence intensity in B16F10 cells treated with 4-MU and 4-MUG, B16F10 cells were trypsinized and 4-MU fluorescence associated with the cells was analyzed by flow cytometry in the Pacific Blue channel using a BD™ LSRII flow cytometer. For permeabilization, after trypsinization, cells were incubated in methanol at −20° C. for 20 min and washed once before flow cytometric analysis.
as §1

db/db mice = assay: db/db mouse model of type 2 diabetes; type: in vivo; settings: for body weight of db/db mice: after start of treatment; for intra-peritoneal glucose tolerance testing (IPGTT): fasting db/db mice fed drug for previous 2 weeks; for HA staining in pancreatic islets of db/db mice: mouse, in vivo; for blood glucose (BG) levels in db/db mice: over one month, 4-MU chow or 4-MUG in drinking water vs control chow
Excerpt: All animals were bred and maintained under specific pathogen-free conditions, with free access to food and water, in the animal facilities at Stanford University Medical School (Stanford, Calif.). B6 db/db LeptR−/− mice were purchased from Jackson Laboratories (JAX) as well as DO11.10 transgenic mice. The DO11.10 mice were bred with Balb/c mice expressing RIPmOva (ovalbumin peptide amino acids 323-339; available at the Benaroya Research Institute) to generate the DORmO double-transgenic mice. In addition, C57Bl/6J mice were bred in-house at Stanford University School of Medicine.
Beginning at four weeks of age, mice were weighed weekly as well as bled via the tail vein for the determination of their blood glucose level using a Contour® blood glucose meter and blood glucose monitoring strips (Bayer Healthcare). When two consecutive blood glucose readings of 250 mg/dL were recorded, animals were considered diabetic. When two consecutive blood glucose readings of 300 mg/dL were recorded, animals were euthanized.
The 4-MU (Alfa Aesar) was pressed into mouse chow (TestDiet, St. Louis, Mo.) and irradiated before shipment, as previously described (Nagy N., et al., Circulation. 2010; 122(22):2313-2322). This chow formulation delivers 250 mg/mouse/day, yielding a serum drug concentration of 640.3±17.2 nmol/L in mice, as measured by HPLC-MS. 4-MUG (ChemImpex, Wood Dale, Ill.) was distributed in the drinking water at a concentration of 2 mg/ml, delivering 10 mg/mouse/day, yielding a serum drug concentration of 357.1±72.6 ng/mL in mice, as measured by LC-MS/MS. Mice were initiated on 4-MU and 4-MUG at five, eight or twelve weeks of age, unless otherwise noted, and were maintained on this diet until they were euthanized, unless otherwise noted. For analysis of Foxp3+ regulatory T-cell numbers in naïve mice, mice were treated daily with 0.5 mg of 4-MU or 1.0 mg 4-MUG in 200 μl 0.08% carboxymethylcellulose in saline by intra-peritoneal injection.
To assess whether 4-MUG is effective against HA synthesis in a different inflammatory disease that is non-autoimmune in nature, the role of 4-MUG in the db/db model of type 2 diabetes was investigated. db/db mice lack a functional leptin receptor and are obese and diabetic.
Referring to FIG. 7D, the beneficial effect of 4-MU and 4-MUG on glycemic control was maintained for at least 10 weeks, indicating a lasting improvement. FIGS. 7F and 7G show intra-peritoneal glucose tolerance testing (IPGTT) of fasting db/db mice fed 4-MU or 4-MUG for 2 weeks.

[3] = cited from earlier work
CTLL2 cells = assay: HA synthesis inhibition in CTLL2 lymphoma cells; type: cell-based; settings: lymphoma cell line
Protocol: as §1

time after which treated B16F10 cells became fluorescent (B16F10 cells [1]; incubated 24, 48 or 72 hours, flow cytometry)	fluorescence of treated B16F10 cells upon permeabilization (B16F10 cells [1])	SMILES	HA synthesis inhibition in Min6 cells (Min6 cells)	HA production (HA synthesis inhibition) by B16F10 cells (B16F10 cells [2])	HA staining of B16F10 cells with HA binding protein (HABP) (B16F10 cells [2])	body weight of db/db mice (db/db mice)	intra-peritoneal glucose tolerance testing (IPGTT) (db/db mice)	HA staining in pancreatic islets of db/db mice (db/db mice)	blood glucose (BG) levels in db/db mice (db/db mice)	concentration of 4-MUG relative to parent molecule 4-MU ([3]; animal studies)	median plasma concentration of 4-MUG relative to 4-MU ([3]; mouse models)	HA synthesis inhibition in CTLL2 cells (CTLL2 cells)	half-life ([3]; in mice)
48 to 72 h		Cc1cc(=O)oc2cc(O[C@@H]3O[C@H](C(=O)O)[C@@H](O)[C@H](O)[C@H]3O)ccc12 [4-MUG, 4-methylumbelliferone-glucuronide]	inhibited HA synthesis	concentration dependent inhibition of HA synthesis	reduced HA	soon recovered	improvement in glycemic control	reduced HA staining	reliably decreased blood glucose	300 fold	more than 3,000 fold	inhibited HA synthesis	
	lost upon permeabilization	Cc1cc(=O)oc2cc(O)ccc12 [4-MU, 4-methylumbelliferone]	HA synthesis inhibition	concentration dependent inhibition of HA synthesis	reduced HA	initial decrease in weight	improvement in glycemic control	reduced HA staining	reliably decreased blood glucose			HA synthesis inhibition	3 min

From US20220079966A1, “HYALURONAN SYNTHESIS INHIBITION FOR TREATING AUTOIMMUNE, INFLAMMATORY, FIBROTIC, OR PROLIFERATIVE DISEASES OR DISORDERS” (The Board of Trustees of the Leland Stanford Junior …, priority 2018, published 2022)
